What all share (type): cell-based
Experiment [1] deals with HRV16. Description: HRV16 HELA EC50 (cytopathic effect in H1-HeLa cells). The following applies: 96 h, H1-HeLa cells, 33° C., read-out: HRV16 HELA EC50. In a few lines:
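H1-HeLa cells seeded one day before, given 3-fold serial compound dilutions in triplicate just prior to infection with pre-titrated virus. Incubated 96 h at 33 °C/5% CO2; protection from cytopathic effect read as viability by CellTiter-Glo luminescence, normalised to infected untreated (0%) and uninfected (100%) controls.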

Experiment [2] deals with RSV strain A2. Description: RSV HEp-2 EC50 (infectious cytopathic cell protection assay). The following applies: HEp-2 cells, RSV A2, 4 days, read-out: RSV HEp-2 EC50. Put shortly: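 HEp-2 cells mixed with titered RSV A2 at 50,000 cells/ml were added to plates holding 3-fold serial compound dilutions in DMSO, then incubated 4 days at 37° C. Cytoprotection was read as cell viability by CellTiter-Glo luminescence and converted to percent inhibition against 0% and 100% inhibition controls.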

For experiment [3], the system named is HRV10. Description: HRV10 HELA EC50.
In experiment [4] the test system is HRV1a. Kind of experiment: HRV1A HELA EC50 (cytopathic effect in H1-HeLa cells). The conditions noted are these: 96 h, read-out: HRV1A HELA EC50. The method, then:
(§1) H1-HeLa cells, cultured in complete RPMI 1640 medium containing 10% heat-inactivated FBS and 1% Penicillin/Streptomycin, were seeded in 96 well plates at 5000 cells/well one day prior to compound dosing and infection. The antiviral activity of each compound was measured in triplicate. Compounds were added directly to the cell cultures in serial 3-fold dilutions using the HP300 digital dispenser (Hewlett Packard, Palo Alto, CA) immediately prior to infection. The plates were transferred to BSL-2 containment and 100 μL of 1/4000 dilution of HRV1a virus stock was added to each well containing cells and serially diluted compounds. Each plate included 6 wells of infected untreated cells and 6 wells of cells containing 5 μM Rupintrivir that served as 0% and 100% virus inhibition control, respectively. Following the infection, test plates were incubated for 96 h in a tissue culture incubator set to 37° C./5% CO2. Following incubation, the H1-HeLa cells were removed from incubation and allowed to equilibrate to 25° C. Cell viability was determined by removing 100 μL of culture medium and adding 100 μL of Cell-Titer Glo viability reagent. The mixtures were incubated on a shaker for 10 minutes at 25° C., and the luminescence signal was quantified on an Envision luminescence plate reader.

The test system of experiment [5] is HRV99. Description: HRV99 EC50.
For experiment [6], the system named is RSV A2. Kind of experiment: RSV NHBE EC50 (RSV A2 antiviral assay in normal human bronchial epithelial cells). The conditions noted are these: NHBE cells, RSV A2, 4 days, read-out: RSV NHBE EC50.
Experiment [7] has as its system HRV14. Description: HRV14 HELA EC50 (cytopathic effect in H1-HeLa cells). The conditions noted are these: 96 h, read-out: HRV14 HELA EC50. The method, then:
as §1, with “HRV14” for “HRV1a”
(Damage to the host cells serves as the signal in cytopathic effect assays.)

For experiment [8], the system named is RSV A strain A2. Description: RSV HAE EC50 (intracellular RSV RNA by real-time PCR in HAE cells). The following applies: read-out: RSV HAE EC50. The method, then: HAE cells are cultured at the air-liquid interface and have an apical side that is exposed to the air and a basal side that is in contact with the medium. Prior to experimentation, HAE were removed from their agar-based shipping packaging and were acclimated to 37° C./5% CO2 overnight in 1 ml of HAE Assay medium (AIR-100-MM, Mattek Corp). HAE were prepared for infection by washing the apical surface twice with 400 μL of PBS (either utilizing direct pipetting methods or by running each transwell through a trough containing PBS) to remove the mucus layer. Apical chambers were drained of PBS and tapped gently onto absorbent material to remove as much PBS as possible. After washing, the cells were transferred to fresh HAE maintenance media containing 4-fold serially diluted compound, delivered to the basal side of the cell monolayer, and apically infected with 100 μL of a 1:600 dilution of RSV A strain A2 1000× stock (ABI, Columbia, MD, cat #10-124-000) in HAE assay medium for 3 hours at 37° C. in 5% CO2. The virus inoculum was removed and the apical surface of the cells was washed 3 times with PBS using either method previously described. The cells were then cultured in the presence of compound for 3 days at 37° C. Following the incubation, total RNA was extracted from the HAE cells using a MagMAX-96 Viral RNA isolation kit (Applied Biosystems, Foster City, CA, Cat #AM1836) and intracellular RSV RNA was quantified by real-time PCR. Approximately 25 ng of purified RNA was added to a PCR reaction mixture that contained 0.9 μM RSV N Forward and RSV N Reverse primers, 0.2 μM RSV N Probe and 1×Taqman RNA-to-Ct 1-Step Kit (Applied Biosystems, Foster City, CA, Cat #4392938). RNA levels were normalized using a Tagman GAPDH control primer set (Applied Biosystems, Foster City, CA, Cat #402869). Real-Time PCR Primers and Probe Used in the RSV A2 HAE Antiviral Assay: […]
(Real-time PCR tracks product formation cycle by cycle.)

Experiment [9] concerns Dengue serotype 2 New Guinea C (NGC) strain. Description: DENV-2 Huh-7 EC50 (qPCR in Huh7 cells). The protocol:
Huh7 (Human hepatocarcinoma 7) cells were maintained in 10% FCS-containing DMEM complete media. On the day of the assay, cells were trypsinized (0.1% Trypsin-EDTA), washed and infected for 2 hours in serum-free DMEM with Dengue serotype 2 New Guinea C (NGC) strain at MOI=0.1 with gentle agitation at 37° C. After 2 hours, cells were washed with serum-free media and suspended in 10% FCS-containing DMEM (Gibco, supplemented with sodium pyruvate, NEAA, Penicillin-Streptomycin). 10^5 cells were plated in triplicate in 96-well plates with compounds dispensed at graded doses (Hewlett-Packard D300 Digital Dispenser). All wells were normalized to 0.25% DMSO. At 48 hours, cells were washed with 1×PBS and all supernatants removed. Total RNA was extracted using RNEasy 96 plates (Qiagen) and used to generate first-strand cDNA using XLT cDNA 5×Supermix (QuantaBio). cDNA was used as a template in a Taqman qPCR duplex reaction specific to DENV2 viral and GAPDH gene expression. EC50 values were determined using Prism Graphpad software, with normalization to a positive control and no compound negative control wells.

The test system of experiment [10] is DENV2 replicon. Description: DENV-2 Huh-7 Rep EC50 (replicon luminescence). The following applies: Huh-7 replicon cells, 48 hours, read-out: DENV-2 Huh-7 Rep EC50. Put shortly: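 Huh-7 cells carrying a DENV2 replicon, 5,000 cells/well, were incubated with dosed compounds for 48 h at 37° C. EnduRen live-cell substrate was added 1.5 h before luminescence reading. EC50 came from dose-response against DMSO-only wells.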
A general note: Replicon systems follow genome replication, usually without infectious particles.

In experiment [11] the test system is Dengue 2, New Guinea strain (NGC). Kind of experiment: DENV-2 moDC EC50 (qPCR in human monocyte-derived dendritic cells). The conditions noted are these: moDCs. The protocol: Human monocyte-derived dendritic cells (moDCs) were derived from CD14+ monocytes (AllCells) cultured in Human Mo-DC Differentiation medium containing GM-CSF and IL-4 (Miltenyi Biotec). On day 7, moDCs were harvested by mechanical disruption, washed and suspended in serum-free RPMI. moDCs were infected with Vero-derived Dengue 2, New Guinea strain (NGC) at a MOI=0.1 for two hours in serum-free RPMI with gentle agitation at 37° C. Cells were washed and resuspended in 10% serum-containing RPMI (Gibco, supplemented with sodium pyruvate, NEAA, Penicillin-Streptomycin). 10^5 cells were plated in triplicate in 96-well plates with compounds dispensed at graded doses (Hewlett-Packard D300 Digital Dispenser). All wells were normalized to 0.25% DMSO. At 48 hours, cells were washed with 1×PBS and all supernatants removed. Total RNA was extracted using RNEasy 96 plates (Qiagen) and used to generate first-strand cDNA using XLT cDNA 5× Supermix (QuantaBio). cDNA was used as a template in a Taqman qPCR duplex reaction specific to DENV2 viral and GAPDH gene expression. EC50 values were determined using Prism Graphpad software, with normalization to a positive control and no compound negative control wells.

[12] abbreviates: human respiratory syncytial virus, HEp-2, 96 h.
The mark [13] stands for this setting: human respiratory syncytial virus, NHBE, 96 h.
The mark [14] stands for this setting: Dengue virus, DENV2, Huh-7, 48 h.
Setting [15] is: Dengue virus, DENV2, Dendritic cell, 48 h.

For orientation: pEC50 means the EC50 on a negative log10 scale, so that one unit is a factor of ten.

Molecules are shown by their SMILES. pEC50: −log10 of the molar value. Like-named read-outs stand apart in the source and are kept apart here. Bounds are passed on as bounds.

As for `C[C@H](NP(=O)(OC[C@@]1(C#N)O[C@@H](c2ccc3c(N)ncnn23)[C@H](O)[C@@H]1O)Oc1ccccc1)C(=O)OCC1CCC1` (mixture of isomers) [Example 2, (2S)-cyclobutylmethyl 2-(((((2R,3S,4R,5S)-5-(4-aminopyrrolo[2,1-f][1,2,4]triazin-7-yl)-2-cyano-3,4-dihydroxytetrahydrofuran-2-yl)methoxy)(phenoxy)phosphoryl)amino)propanoate], the pEC50 is 6.45 in experiment [1]; 7.25 in experiment [2] (setting [12]); 6.94 in experiment [3]; 6.97 in experiment [4]; 6.15 in experiment [5]; 6.91 in experiment [6] (setting [13]). Also, the pEC50 in experiment [7] is 6.47.
As for `C[C@H](NP(=O)(OC[C@@]1(C#N)O[C@@H](c2ccc3c(N)ncnn23)[C@H](O)[C@@H]1O)Oc1ccccc1)C(=O)OC1CCCCCCC1` (single isomer, unassigned) [Example 173], the pEC50 is 7.66 in experiment [8] (human respiratory syncytial virus, HAE, 72 h); 5.92 in [9] (setting [14]); 6.81 in experiment [2]; 6.55 in experiment [6].
`CCC(C)(C)COC(=O)[C@H](C)NP(=O)(OC[C@@]1(C#N)O[C@@H](c2ccc3c(N)ncnn23)[C@H](O)[C@@H]1O)Oc1ccccc1` (single isomer, unassigned) [Example 255]: the pEC50 in [9] (48 hours) is 6.08; in [10], 5.31; in experiment [11] (setting [15]) it was 7.07; in experiment [2], 7.74; in experiment [6], 7.37.
For the molecule `CCC(C)(C)COC(=O)[C@H](C)NP(=O)(OC[C@@]1(C#N)O[C@@H](c2ccc3c(N)ncnn23)[C@H](O)[C@@H]1O)Oc1ccccc1` (single isomer, unassigned) [Example 256], the pEC50 in experiment [9] (48 hours) is below 4.74; in experiment [10], below 4.00; in [11] (48 hours), 6.99; in [2] it was 7.27; in experiment [6], 6.37.
With `CCCCOC(=O)[C@H](C)N[P@](=O)(OC[C@@]1(C#N)O[C@@H](c2ccc3c(N)ncnn23)[C@H](O)[C@@H]1O)Oc1ccccc1` [Example 54, butyl ((S)-(((2R,3S,4R,5S)-5-(4-aminopyrrolo[2,1-f][1,2,4]triazin-7-yl)-2-cyano-3,4-dihydroxytetrahydrofuran-2-yl)methoxy)(phenoxy)phosphoryl)-L-alaninate], the pEC50 in experiment [1] was 6.42; in experiment [9] (setting [14]), 5.59; in experiment [10] (setting [14]), 5.13; in experiment [11] (setting [15]), 6.09; in [6] (setting [13]) it was 6.98.
Turning to `CC1CCC(OC(=O)C(C)NP(=O)(OCC2(C#N)OC(c3ccc4c(N)ncnn34)C(O)C2O)Oc2ccccc2)CC1` (stereo not shown) [Example 143], the pEC50 is 6.80 in [8] (HAE cells, RSV A2, 3 days); 6.85 in experiment [2]; 7.28 in experiment [6].
In the case of `CCCCCCCCCCCC(=O)Nc1ncnn2c([C@@H]3O[C@](C#N)(CO[P@@](=O)(N[C@@H](C)C(=O)OC4CCCCC4)Oc4ccccc4)[C@@H](O)[C@H]3O)ccc12` [Example 232, Cyclohexyl ((S)-(((2R,3S,4R,5S)-2-cyano-5-(4-dodecanamidopyrrolo[2,1-f][1,2,4]triazin-7-yl)-3,4-dihydroxytetrahydrofuran-2-yl)methoxy)(phenoxy)phosphoryl)-L-alaninate], the pEC50 was 6.32 in experiment [1]; 5.27 in experiment [10] (setting [14]); 5.96 in [11] (setting [15]); 7.21 in experiment [2] (setting [12]); 7.01 in experiment [6] (setting [13]).

The record behind these values is patent US20230295201A1 (Gilead Sciences, Inc., priority 2020, published 2023).
